# Measurements taken from publication PMC6009888, “Design, synthesis, and pharmacological evaluation of 2-amino-5-nitrothiazole derived semicarbazones as dual inhibitors of monoamine oxidase and cholinesterase: effect of the size of aryl binding site” (Journal of Enzyme Inhibition and Medicinal Chemistry, 2017).
# Several values for one entry are separate records, joined by “and”; a condition that tells them apart may be missing. Equal entries are not always repeated.
# Molecular target: T1, rat brain AChE (Rattus norvegicus, UniProt P37136)
# T1 construct: the resulting clear supernatants obtained were used as enzyme sources; from tissue; host or cells: rat brain cortex homogenate, 10,000 g supernatant
# Test: biochemical
# Format: biochemical
# Conditions: diaryl analogues
# Protocol: Rat brain was used as a source of AChE enzyme. Rats were separately decapitated, the brain cortices quickly removed, weighed and homogenised in cold 10 mM Tris-HCl buffer, pH 7.2, containing 160 mM sucrose. The homogenates were centrifuged at 10,000 g for 10 min at 4 °C, and the resulting clear supernatants obtained were used as enzyme sources that were divided into aliquots and stored at −20 °C.
# (§1) About 30 µl of enzyme sample (AChE) was added to 60 µl of 20 mM sodium phosphate buffer (pH 7.4) and were incubated in the presence of 30 µl of 10 mM DTNB solution with different concentrations of the test compounds. The enzyme reaction was initiated by the addition of 30 µl of 0.8 mM ACTI. The mixtures were incubated for 15 min at 25 °C. […] Control experiments were carried out without inhibitor, and blanks were run without AChE enzyme. All the assays were performed in triplicate. IC50 values were determined using the GraphPad Prism 5.0 (San Diego, CA) and the results were expressed as mean ± SEM.
# (§2) 0, 15, 30 and 60 min at 25 °C in sodium phosphate buffer (20 mM, pH 7.4) and DTNB solution (10 mM). […] The reaction was further incubated at 25 °C for a further 15 min and the residual enzyme activities were measured and the bar graphs were constructed. All measurements were carried out in triplicate and are expressed as mean ± SEM.
# T1 sequence (P37136 32-614): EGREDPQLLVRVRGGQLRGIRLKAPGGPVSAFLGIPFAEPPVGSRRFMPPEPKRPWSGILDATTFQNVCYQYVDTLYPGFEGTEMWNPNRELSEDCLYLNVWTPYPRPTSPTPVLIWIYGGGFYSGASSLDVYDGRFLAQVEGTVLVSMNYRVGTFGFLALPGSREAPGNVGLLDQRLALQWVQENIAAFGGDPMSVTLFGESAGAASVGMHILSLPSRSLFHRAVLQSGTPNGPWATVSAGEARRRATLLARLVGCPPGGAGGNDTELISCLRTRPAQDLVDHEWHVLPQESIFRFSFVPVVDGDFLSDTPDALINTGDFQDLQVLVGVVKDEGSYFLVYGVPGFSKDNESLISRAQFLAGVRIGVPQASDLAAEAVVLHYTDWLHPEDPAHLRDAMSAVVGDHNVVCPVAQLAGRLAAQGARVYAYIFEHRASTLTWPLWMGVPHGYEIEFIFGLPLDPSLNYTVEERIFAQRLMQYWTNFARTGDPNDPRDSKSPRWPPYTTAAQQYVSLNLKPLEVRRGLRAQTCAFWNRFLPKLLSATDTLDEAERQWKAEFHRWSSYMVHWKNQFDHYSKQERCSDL
row,SMILES,AChE: fold less active relative to compound 19 [fold]
1,"O=C(NN=C(c1ccccc1)c1ccccc1)Nc1ncc([N+](=O)[O-])s1 [Compound 16, 1-(Diphenylmethylene)-4-(5-nitrothiazol-2-yl)semicarbazide]",~3.35

# Same assay, conditions: isomeric dichloro derivatives
row,SMILES,AChE: fold less active than compound 14 [fold]
1,"O=C(NN=Cc1cccc(Cl)c1Cl)Nc1ncc([N+](=O)[O-])s1 [Compound 12, 1-(2,3-Dichlorobenzylidene)-4-(5-nitrothiazol-2-yl)semicarbazide]",~9.4

# Same assay, conditions: rat brain AChE, ACTI substrate, mean ± SEM, triplicate; read-out: AChE In vitro IC50 (µM) ± SEM
row,SMILES,IC50 [µM]
1,"O=C(NN=C(c1ccccc1)c1ccccc1)Nc1ncc([N+](=O)[O-])s1 [Compound 16, 1-(Diphenylmethylene)-4-(5-nitrothiazol-2-yl)semicarbazide]",4.86 ± 0.81
2,"O=C(NN=Cc1cccc(Cl)c1Cl)Nc1ncc([N+](=O)[O-])s1 [Compound 12, 1-(2,3-Dichlorobenzylidene)-4-(5-nitrothiazol-2-yl)semicarbazide]",101 ± 1.58

# Test system: not listed separately
# Test: physchem
# Conditions: octanol/water
row,SMILES,logP
1,"O=C(NN=C(c1ccccc1)c1ccccc1)Nc1ncc([N+](=O)[O-])s1 [Compound 16, 1-(Diphenylmethylene)-4-(5-nitrothiazol-2-yl)semicarbazide]",3.4
2,"O=C(NN=Cc1cccc(Cl)c1Cl)Nc1ncc([N+](=O)[O-])s1 [Compound 12, 1-(2,3-Dichlorobenzylidene)-4-(5-nitrothiazol-2-yl)semicarbazide]",2.6

# Test system: mice
# Test: Neurotoxicity screening (rotarod test)
# Format: in vivo
# Conditions: 30 mg/kg i.p., 0.5 h
# Protocol: The neurotoxicity screening was undertaken according to the method followed by the National Institute of Health, using their reported procedures[55]^,[56]. Male albino mice (CF-1 strain or Swiss, 18–25 g) were used as experimental animals. The animals were housed in metabolic cages, and allowed free access to food and water. The test compounds were suspended in 0.5% methylcellulose/water mixture or in polyethylene glycol (PEG 200).
# Minimal motor impairment was measured in mice by the rotarod test. The mice were trained to stay on an accelerating rotarod that rotates at six revolutions per minute. The rod diameter was 3.2 cm. Trained animals were given i.p. injection of the selected inhibitors at a dose of 30 mg/kg. Neurotoxicity was indicated by the inability of the animal to maintain equilibrium on the rod for at least 1 min in each of the three trials.
row,SMILES,Neurotoxicity (animals that exhibit toxicity / animals tested)
1,"O=C(NN=C(c1ccccc1)c1ccccc1)Nc1ncc([N+](=O)[O-])s1 [Compound 16, 1-(Diphenylmethylene)-4-(5-nitrothiazol-2-yl)semicarbazide]",0/4
2,"O=C(NN=Cc1cccc(Cl)c1Cl)Nc1ncc([N+](=O)[O-])s1 [Compound 12, 1-(2,3-Dichlorobenzylidene)-4-(5-nitrothiazol-2-yl)semicarbazide]",0/4

# Same assay, conditions: 30 mg/kg i.p., 1 h
row,SMILES,Neurotoxicity (animals that exhibit toxicity / animals tested)
1,"O=C(NN=C(c1ccccc1)c1ccccc1)Nc1ncc([N+](=O)[O-])s1 [Compound 16, 1-(Diphenylmethylene)-4-(5-nitrothiazol-2-yl)semicarbazide]",0/4
2,"O=C(NN=Cc1cccc(Cl)c1Cl)Nc1ncc([N+](=O)[O-])s1 [Compound 12, 1-(2,3-Dichlorobenzylidene)-4-(5-nitrothiazol-2-yl)semicarbazide]",0/4

# Same assay, conditions: 30 mg/kg i.p., 2 h
row,SMILES,Neurotoxicity (animals that exhibit toxicity / animals tested)
1,"O=C(NN=C(c1ccccc1)c1ccccc1)Nc1ncc([N+](=O)[O-])s1 [Compound 16, 1-(Diphenylmethylene)-4-(5-nitrothiazol-2-yl)semicarbazide]",0/4
2,"O=C(NN=Cc1cccc(Cl)c1Cl)Nc1ncc([N+](=O)[O-])s1 [Compound 12, 1-(2,3-Dichlorobenzylidene)-4-(5-nitrothiazol-2-yl)semicarbazide]",0/4

# Same assay, conditions: 30 mg/kg i.p., 4 h
row,SMILES,Neurotoxicity (animals that exhibit toxicity / animals tested)
1,"O=C(NN=C(c1ccccc1)c1ccccc1)Nc1ncc([N+](=O)[O-])s1 [Compound 16, 1-(Diphenylmethylene)-4-(5-nitrothiazol-2-yl)semicarbazide]",0/4
2,"O=C(NN=Cc1cccc(Cl)c1Cl)Nc1ncc([N+](=O)[O-])s1 [Compound 12, 1-(2,3-Dichlorobenzylidene)-4-(5-nitrothiazol-2-yl)semicarbazide]",0/4

# Molecular target: T2, MAO-A (Rattus norvegicus, UniProt P21396)
# T2 construct: employing crude rat brain mitochondrial suspension; from tissue; host or cells: brain mitochondria of adult Wistar rats
# T2 sequence (P21396 1-526): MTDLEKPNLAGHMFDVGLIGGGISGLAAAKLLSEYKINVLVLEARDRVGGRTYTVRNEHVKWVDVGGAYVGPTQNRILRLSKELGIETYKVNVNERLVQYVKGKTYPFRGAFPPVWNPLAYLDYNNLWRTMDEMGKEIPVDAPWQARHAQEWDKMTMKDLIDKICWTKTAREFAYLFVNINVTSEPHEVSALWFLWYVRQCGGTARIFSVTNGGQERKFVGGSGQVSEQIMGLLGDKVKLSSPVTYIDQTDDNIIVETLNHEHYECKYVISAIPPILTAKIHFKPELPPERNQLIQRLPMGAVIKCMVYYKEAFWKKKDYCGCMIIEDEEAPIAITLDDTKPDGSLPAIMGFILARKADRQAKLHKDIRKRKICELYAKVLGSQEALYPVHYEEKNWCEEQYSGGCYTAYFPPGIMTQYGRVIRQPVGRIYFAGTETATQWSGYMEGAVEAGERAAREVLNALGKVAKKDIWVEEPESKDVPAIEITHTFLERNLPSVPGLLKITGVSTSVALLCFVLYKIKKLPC
# Test: In vitro MAO-A inhibition assay (rat brain mitochondria, serotonin substrate)
# Format: biochemical
# Conditions: rat brain mitochondria, serotonin substrate, mean ± SEM, triplicate; read-out: MAO-A In vitro IC50 (µM) ± SEM
# Protocol: (§3) Rat brain mitochondria were used as a source of MAO isoforms. All operations were carried out at 4 °C[50]. Male and female adult Wistar rats weighing 200–220 g were decapitated. All brains were rapidly removed and homogenised with a Potter–Elvehjem homogeniser in cold 0.32 M sucrose and 50 mM Tris-HCl, pH 8.2 (10:1, v/w). The homogenate was centrifuged twice at 1000 g for 5 min at 4 °C. The resulting supernatant was centrifuged at 20,000 g for 20 min. The mitochondrial pellet obtained was suspended in 100 mM sodium phosphate buffer, pH 7.4 (4:1, v/w), fractionated in plastic vials to 500 µl samples and stored at −80 °C. Before use, mitochondria were diluted with 100 mM sodium phosphate buffer to give a working solution of 0.80 mg of protein per millilitre.
# (§4) The experiments were carried out under all the suitable laboratory conditions. […] An aliquot was made to contain mixture of 55 µl mitochondrial suspension (0.80 mg of protein/ml), 90 µl 50 mM Tris-HCl buffer, pH 8.2 and 30 µl solubilising solution (control or inhibitor solution at five different concentrations). The reaction was initiated by adding 25 µl of serotonin (4 mM, substrate for MAO-A) and 25 µl benzylamine (0.1 M, substrate for MAO-B) for the determination of MAO-A and MAO-B activity, respectively. The mixture was incubated at 37 °C for 30 min and the reaction was stopped by the addition of 50 µl of 1 N HCl. The absorbance associated with the production of 5-hydroxyindolacetic acid was measured at 280 nm for the estimation of MAO-A while for MAO-B estimation, the absorbance was measured at 250 nm due to the formation of benzaldehyde. All the assays were performed in triplicate. Control experiments were carried out without inhibitor and blanks were run without mitochondrial suspension.
# (§5) Data are expressed as mean ± standard error mean (SEM) of experiments performed in triplicate.
# as §2, with “37” for “25”, “Tris-HCl” for “sodium phosphate”, “(50” for “(20”, “8.2).” for “7.4) and DTNB solution (10 mM).”, “reactions were” for “reaction was”
row,SMILES,IC50
1,"O=C(NN=C(c1ccccc1)c1ccccc1)Nc1ncc([N+](=O)[O-])s1 [Compound 16, 1-(Diphenylmethylene)-4-(5-nitrothiazol-2-yl)semicarbazide]",< 100 µM and 89.3 µM
2,"O=C(NN=Cc1cccc(Cl)c1Cl)Nc1ncc([N+](=O)[O-])s1 [Compound 12, 1-(2,3-Dichlorobenzylidene)-4-(5-nitrothiazol-2-yl)semicarbazide]",3369 ± 6.43 µM

# Molecular target: T3, equine serum BuChE (Equus caballus, UniProt P81908)
# T3 construct: equine serum BuChE was used as enzyme; purchased Sigma-Aldrich; host or cells: equine serum
# Test: In vitro BuChE inhibition assay (Ellman's method, equine serum BuChE)
# Format: biochemical
# Conditions: diaryl analogues
# Protocol: as §1
# The BuChE activity was assayed as per the procedure followed for AChE activity except that equine serum BuChE was used as enzyme and butyrylthiocholine iodide (BuTI) was used as substrate.
# as §2
# T3 sequence (P81908 whole entry): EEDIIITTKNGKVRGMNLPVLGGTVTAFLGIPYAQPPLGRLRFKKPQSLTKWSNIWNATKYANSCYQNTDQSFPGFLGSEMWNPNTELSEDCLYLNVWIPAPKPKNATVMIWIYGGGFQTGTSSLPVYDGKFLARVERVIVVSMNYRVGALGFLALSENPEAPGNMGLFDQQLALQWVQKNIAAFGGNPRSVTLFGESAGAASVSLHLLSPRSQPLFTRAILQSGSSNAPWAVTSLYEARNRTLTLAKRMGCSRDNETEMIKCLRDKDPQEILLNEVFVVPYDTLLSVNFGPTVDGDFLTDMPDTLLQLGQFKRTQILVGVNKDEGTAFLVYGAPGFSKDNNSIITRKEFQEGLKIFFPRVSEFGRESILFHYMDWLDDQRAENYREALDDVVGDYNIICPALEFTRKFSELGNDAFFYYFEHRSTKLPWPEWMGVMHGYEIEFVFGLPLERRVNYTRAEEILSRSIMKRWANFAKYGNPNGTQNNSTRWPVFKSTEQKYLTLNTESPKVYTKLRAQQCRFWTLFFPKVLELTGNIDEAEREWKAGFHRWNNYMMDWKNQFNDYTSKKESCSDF
row,SMILES,BuChE: fold less active relative to compound 17 [fold]
1,"O=C(NN=C(c1ccccc1)c1ccccc1)Nc1ncc([N+](=O)[O-])s1 [Compound 16, 1-(Diphenylmethylene)-4-(5-nitrothiazol-2-yl)semicarbazide]",~73

# Same assay, conditions: equine serum BuChE, BuTI substrate, mean ± SEM; read-out: BuChE In vitro IC50 (µM) ± SEM
row,SMILES,IC50 [µM]
1,"O=C(NN=C(c1ccccc1)c1ccccc1)Nc1ncc([N+](=O)[O-])s1 [Compound 16, 1-(Diphenylmethylene)-4-(5-nitrothiazol-2-yl)semicarbazide]",1.76 ± 0.035

# Test system: not listed separately
# Test: In vitro DPPH radical scavenging assay
# Conditions: test sample 100 µg/ml, 100 µM methanolic DPPH, 30 min, 517 nm
# Protocol: Antioxidant activity of the synthesised compounds (10 mg/ml) was evaluated using the radical scavenging capability against the stable free radical, 2,2′-diphenyl-1-picryl hydrazyl (DPPH·). The DPPH· scavenging capability was determined using UV based spectrophotometric assay. About 200 µl of the test sample solution (100 µg/ml) was added to 4 ml of 100 µM methanolic DPPH. […] Ascorbic acid (100 µg/ml) was used as reference. The percentage inhibition of DPPH activity was estimated using the formula: Percent (%) inhibition of DPPH activity = Acontrol-Asample/Acontrol×100 where Acontrol is the absorbance of DPPH· in methanol without an antioxidant and Asample is the absorbance of DPPH· in the presence of an antioxidant.
row,SMILES,% inhibition of DPPH activity [%]
1,"O=C(NN=Cc1cccc(Cl)c1Cl)Nc1ncc([N+](=O)[O-])s1 [Compound 12, 1-(2,3-Dichlorobenzylidene)-4-(5-nitrothiazol-2-yl)semicarbazide]",42.56

# Molecular target: T4, MAO-B (Rattus norvegicus, UniProt P19643)
# T4 construct: employing crude rat brain mitochondrial suspension; from tissue; host or cells: brain mitochondria of adult Wistar rats
# T4 sequence (P19643 1-520): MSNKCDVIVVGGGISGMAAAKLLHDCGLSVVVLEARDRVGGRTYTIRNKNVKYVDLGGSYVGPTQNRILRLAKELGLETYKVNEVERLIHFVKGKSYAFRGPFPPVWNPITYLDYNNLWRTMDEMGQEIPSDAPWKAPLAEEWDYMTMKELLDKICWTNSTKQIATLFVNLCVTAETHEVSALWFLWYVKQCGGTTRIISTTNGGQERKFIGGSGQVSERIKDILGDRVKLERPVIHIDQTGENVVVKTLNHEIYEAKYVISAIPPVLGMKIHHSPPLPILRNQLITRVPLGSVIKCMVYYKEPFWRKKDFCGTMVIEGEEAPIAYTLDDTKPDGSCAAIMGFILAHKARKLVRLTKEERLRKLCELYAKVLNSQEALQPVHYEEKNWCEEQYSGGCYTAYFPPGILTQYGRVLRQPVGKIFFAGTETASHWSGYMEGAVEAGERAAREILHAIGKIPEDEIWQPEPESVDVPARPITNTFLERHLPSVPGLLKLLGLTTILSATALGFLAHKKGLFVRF
# Test: biochemical
# Conditions: not given
# Protocol: as §3, §4, §5
# as §2, with “37” for “25”, “Tris-HCl” for “sodium phosphate”, “(50” for “(20”, “8.2).” for “7.4) and DTNB solution (10 mM).”, “reactions were” for “reaction was”
row,SMILES,IC50 [µM]
1,"O=C(NN=C(c1ccccc1)c1ccccc1)Nc1ncc([N+](=O)[O-])s1 [Compound 16, 1-(Diphenylmethylene)-4-(5-nitrothiazol-2-yl)semicarbazide]",28.3 ± 0.45
2,"O=C(NN=Cc1cccc(Cl)c1Cl)Nc1ncc([N+](=O)[O-])s1 [Compound 12, 1-(2,3-Dichlorobenzylidene)-4-(5-nitrothiazol-2-yl)semicarbazide]",8.51 ± 0.132

# Same assay, conditions: isomeric dichloro derivatives
row,SMILES,MAO-B: fold less active than compound 13 [fold]
1,"O=C(NN=Cc1cccc(Cl)c1Cl)Nc1ncc([N+](=O)[O-])s1 [Compound 12, 1-(2,3-Dichlorobenzylidene)-4-(5-nitrothiazol-2-yl)semicarbazide]",~2.4

# Same assay, conditions: ratio of experimental IC50(MAO-A)/IC50(MAO-B)
row,SMILES,SI (selectivity index for MAO-B)
1,"O=C(NN=C(c1ccccc1)c1ccccc1)Nc1ncc([N+](=O)[O-])s1 [Compound 16, 1-(Diphenylmethylene)-4-(5-nitrothiazol-2-yl)semicarbazide]",3.15
2,"O=C(NN=Cc1cccc(Cl)c1Cl)Nc1ncc([N+](=O)[O-])s1 [Compound 12, 1-(2,3-Dichlorobenzylidene)-4-(5-nitrothiazol-2-yl)semicarbazide]",395.79
